Target: Nonstructural protein 3 (Zika virus, UniProt A0A024AXB9)
Assay: Functional biochemical assay to identify treatments for viral infectious disease that targets Zika NS2B-NS3 protease. Utilizing a direct enzyme activity measurement method, reading the fluorescence intensity is used to characterize the relative potency of inhibitors as IC50.
Set-up: species or system PRVABC59

Chain of Nonstructural protein 3 (A0A024AXB9 whole entry): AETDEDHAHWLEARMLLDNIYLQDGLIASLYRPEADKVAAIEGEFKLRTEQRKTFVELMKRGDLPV

Row | IC50 [µM] | SMILES
1 | 19 | NCCCc1cccc(NC(=O)c2cc(Cl)cc(NC(=O)OCc3ccccc3)c2)n1
2 | > 99.5 | CC(=O)N1CCC([C@H](NC(=O)OCc2ccccc2)C(=O)Nc2cccc(CN)c2)CC1
3 | > 99.5 | NCc1cccc(NC(=O)c2cc(NC(=O)OCc3ccccc3)ccc2C(F)(F)F)c1
4 | > 99.5 | N#Cc1csc(CN2CCC([C@H](NC(=O)OCc3ccccc3)C(=O)Nc3cccc(CN)c3)CC2)c1
5 | > 99.5 | NCc1cccc(NC(=O)[C@H](NC(=O)OCc2ccccc2)C2CCN(C(=O)[C@H]3C[C@H](O)C3)CC2)c1
6 | > 99.5 | Cn1ccc(COc2ccc([C@@H](NC(=O)OCc3ccccc3)C(=O)Nc3cccc(CN)c3)cc2)n1
7 | > 99.5 | FC(F)(F)Oc1cc(Cl)cc2c(CN3CCC(c4cscn4)CC3)c[nH]c12
8 | 97.6 | N#CC1(S(=O)(=O)N2CCC([C@H](NC(=O)OCc3ccccc3)C(=O)Nc3cccc(CN)c3)CC2)CCC1
9 | 20.6 | NCc1cccc(NC(=O)c2cc(Cl)cc(OC3CC3)c2)c1
10 | 12 | NCc1cccc(NC(=O)c2cc(Cl)cc(N3CCCC3)c2)c1
11 | 22.3 | CCCCSc1ccc(Cl)cc1C(=O)Nc1cccc(CN)c1
12 | > 99.5 | Cc1ncc(C(=O)Nc2cccc(CN)c2)cc1NC(=O)OCc1ccccc1
13 | 89.6 | NCc1cccc(NC(=O)c2cc(NC(=O)OCc3ccccc3)cc3c2OCCO3)c1
14 | > 99.5 | O=C(Nc1cc(Cl)cc(C(=O)NCC2(CO)CCNCC2)c1)OCc1ccccc1
15 | > 99.5 | NCc1cccc(NC(=O)[C@H](NC(=O)OCc2ccccc2)C2CCN(C(=O)C3CCOCC3)CC2)c1
16 | > 99.5 | CNCCS(=O)(=O)N1CCC([C@H](NC(=O)OCc2ccccc2)C(=O)Nc2cccc(CN)c2)CC1
17 | 23.9 | O=C(Nc1cc(Cl)cc(C(=O)Nc2ccc3c(c2)[C@H]2CC[C@H]3N2)c1)OCc1ccccc1
18 | 83.6 | CSc1cc(F)c(C(=O)Nc2cccc(CN)c2)cc1NC(=O)OCc1ccccc1
19 | > 99.5 | CCOCC(=O)N1CCC([C@H](NC(=O)OCc2ccccc2)C(=O)Nc2cccc(CN)c2)CC1
20 | 95.5 | NCc1cccc(NC(=O)[C@@H](NC(=O)OCc2ccccc2)c2ccc(OCC3CCOCC3)cc2)c1
21 | 69.8 | O=C1COc2c(cccc2N2CCN(Cc3c[nH]c4ccccc34)CC2)N1
22 | > 99.5 | NCc1cccc(NC(=O)[C@H](NC(=O)OCc2ccccc2)C2CCN(C3CCCC3)CC2)c1
23 | > 99.5 | CCN(C)S(=O)(=O)N1CCC([C@H](NC(=O)OCc2ccccc2)C(=O)Nc2cccc(CN)c2)CC1
24 | > 99.5 | O=C(Cn1ccnc(N2CC[C@H](CO)C2)c1=O)NCc1ccsc1
25 | > 99.5 | CC(C)CC(=O)N1CCC([C@H](NC(=O)OCc2ccccc2)C(=O)Nc2cccc(CN)c2)CC1

Row | IC50 [µM] | SMILES
26 | 17.7 | NCc1cccc(NC(=O)c2cc(Cl)ccc2-n2cncn2)c1
27 | 77.5 | COCCOc1ccc(Cl)cc1C(=O)Nc1cccc(CN)c1
28 | > 99.5 | CC(C)N1CCC([C@H](NC(=O)OCc2ccccc2)C(=O)Nc2cccc(CN)c2)CC1
29 | > 99.5 | Cn1nnc(S(=O)(=O)N2CCC([C@H](NC(=O)OCc3ccccc3)C(=O)Nc3cccc(CN)c3)CC2)n1
30 | > 99.5 | NCc1cccc(NC(=O)[C@H](NC(=O)OCc2ccccc2)C2CCN(S(=O)(=O)c3ccccc3)CC2)c1
31 | > 99.5 | NCCc1nsc(NC(=O)c2cc(Cl)cc(NC(=O)OCc3ccccc3)c2)n1
32 | 23.8 | CN(C)Cc1cccc(C(=O)Nc2cccc(CN)c2)c1
33 | > 99.5 | Cc1nnc(CN2CCC([C@H](NC(=O)OCc3ccccc3)C(=O)Nc3cccc(CN)c3)CC2)s1
34 | > 99.5 | NCc1cccc(CS(=O)(=O)c2cc(Cl)cc(NC(=O)OCc3ccccc3)c2)c1
35 | 26.9 | COCc1cc(Cl)cc(C(=O)Nc2cccc(CN)c2)c1
36 | > 99.5 | NCc1cccc(NS(=O)(=O)c2cc(Cl)cc(NC(=O)OCc3ccccc3)c2)c1
37 | 31.3 | Cn1nc(CCN)nc1NC(=O)c1cc(Cl)cc(NC(=O)OCc2ccccc2)c1
38 | > 99.5 | Cc1nccn1CCOc1cccc([C@H](NC(=O)OCc2ccccc2)C(=O)Nc2cccc(CN)c2)c1
39 | 6.27 | NCCCc1ccc(F)c(NC(=O)c2cc(Cl)cc(NC(=O)OCc3ccccc3)c2)c1
40 | 5.16 | Cc1cc(CN)cc(NC(=O)c2cc(Cl)cc(NC(=O)OCc3ccccc3)c2)c1
41 | 2.46 | CC(C)OC(=O)Nc1cc(Cl)cc(C(=O)Nc2cccc(CN)c2)c1
42 | 13.7 | C[C@H](N)c1cccc(NC(=O)c2cc(Cl)cc(NC(=O)OCc3ccccc3)c2)c1
43 | > 99.5 | NC[C@H]1C[C@@H](CNC(=O)c2cc(Cl)cc(NC(=O)OCc3ccccc3)c2)CCO1
44 | 33.1 | NC12CCC(CNC(=O)c3cc(Cl)cc(NC(=O)OCc4ccccc4)c3)(CC1)OC2
45 | > 99.5 | Clc1ccc(-c2cc(CN3CCC(c4cscn4)CC3)[nH]n2)cc1
46 | 82.1 | CCS(=O)(=O)c1ccc(Cl)cc1C(=O)Nc1cccc(CN)c1
47 | > 99.5 | Cn1cc(C(=O)N2CCC([C@H](NC(=O)OCc3ccccc3)C(=O)Nc3cccc(CN)c3)CC2)cn1
48 | > 99.5 | Cn1nc([C@@H]2CCCN2)nc1NC(=O)c1cc(Cl)cc(NC(=O)OCc2ccccc2)c1
49 | > 99.5 | CC(C)(C#N)CS(=O)(=O)N1CCC([C@H](NC(=O)OCc2ccccc2)C(=O)Nc2cccc(CN)c2)CC1
50 | 18.4 | NCCCc1ccnc(NC(=O)c2cc(Cl)cc(NC(=O)OCc3ccccc3)c2)c1

Row | IC50 [µM] | SMILES
51 | > 99.5 | NCc1cccc(NC(=O)c2cc(NC(=O)OCc3ccccc3)cc(C(F)(F)F)c2F)c1
52 | > 99.5 | C[C@@]1(CNC(=O)c2cc(Cl)cc(NC(=O)OCc3ccccc3)c2)CNCCOC1
53 | 83 | NCc1cccc(NC(=O)[C@H](NC(=O)OCc2ccccc2)c2ccc(OCc3ccncn3)cc2)c1
54 | > 99.5 | Cn1ccnc1COc1cccc([C@H](NC(=O)OCc2ccccc2)C(=O)Nc2cccc(CN)c2)c1
55 | > 99.5 | O=c1ccc(N2CCN(Cc3c[nH]c4ccccc34)CC2)n[nH]1
56 | 8.27 | NCc1cccc(NC(=O)c2cc(Cl)cc(C3CC3)c2)c1
57 | > 99.5 | Cc1nnc(S(=O)(=O)N2CCC([C@H](NC(=O)OCc3ccccc3)C(=O)Nc3cccc(CN)c3)CC2)s1
58 | > 99.5 | O=C(Cn1ccnc(N2CC[C@H](CO)C2)c1=O)NCc1cccs1
59 | 11.5 | NCc1cccc(NC(=O)c2cc(Cl)cc(N3CCCC3=O)c2)c1
60 | 44.7 | Cc1c(CN)cccc1NC(=O)c1cc(Cl)cc(NC(=O)OCc2ccccc2)c1
61 | 87.6 | CN1CCC(COc2cccc([C@H](NC(=O)OCc3ccccc3)C(=O)Nc3cccc(CN)c3)c2)CC1
62 | > 99.5 | O=C(Nc1cc(Cl)cc(C(=O)NCc2n[nH]c3c2CNCC3)c1)OCc1ccccc1
63 | 45.2 | NCc1cccc(NC(=O)c2cc(Cl)cc3c2OCCNC3)c1
64 | 73.3 | c1cnc2[nH]cc(C3CCN(Cc4c[nH]c5ccncc45)CC3)c2c1
65 | > 99.5 | Oc1cc(N2CCN(Cc3c[nH]c4ccccc34)CC2)ccn1
66 | > 99.5 | Cc1cccc(CNc2ccc(Cl)cc2C(=O)Nc2cccc(CN)c2)n1
67 | > 99.5 | NCc1cccc(NC(=O)[C@@H](NC(=O)OCc2ccccc2)C2CCN(Cc3ccncc3)CC2)c1
68 | 75.6 | O=C(Nc1cc(Cl)cc(C(=O)Nc2cccc3c2CNC3)c1)OCc1ccccc1
69 | > 99.5 | CN(C)Cc1csc(NC(=O)c2cc(Cl)cc(NC(=O)OCc3ccccc3)c2)n1
70 | > 99.5 | NCc1cccc(NC(=O)c2nc(=O)cc(NC(=O)OCc3ccccc3)[nH]2)c1
71 | 79.5 | NCc1cccc(NC(=O)[C@H](NC(=O)OCc2ccccc2)c2ccc(OCCc3cscn3)cc2)c1
72 | > 99.5 | CN(C)Cc1cccc(NC(=O)[C@H](NC(=O)OCc2ccccc2)c2ccc(OCc3ccccc3)cc2)c1
73 | > 99.5 | NCc1cccc(NC(=O)[C@H](NC(=O)OCc2ccccc2)c2cccc(OC[C@H]3COCCO3)c2)c1
74 | 18.1 | NCc1ccc(O)c(NC(=O)c2cc(Cl)cc(NC(=O)OCc3ccccc3)c2)c1
75 | > 99.5 | CN(C)Cc1cc(NC(=O)[C@H](NC(=O)OCc2ccccc2)c2ccc(OCc3ccccc3)cc2)sn1

Row | IC50 [µM] | SMILES
76 | > 99.5 | NCc1ccccc1Oc1ccc(S(=O)(=O)Nc2ccc(Cl)cc2C(=O)NCC(F)(F)F)cc1
77 | > 99.5 | Cn1ccnc1C(=O)N1CCC([C@H](NC(=O)OCc2ccccc2)C(=O)Nc2cccc(CN)c2)CC1
78 | > 99.5 | c1nc(C2CCN(Cc3cc(C4CCOCC4)[nH]n3)CC2)cs1
79 | 25.6 | CN(C)CCOc1ccc(Cl)cc1C(=O)Nc1cccc(CN)c1
80 | > 99.5 | N#Cc1cccc2[nH]cc(CN3CCC(c4cscn4)CC3)c12
81 | > 99.5 | O=C(Nc1cc(Cl)cc(C(=O)Nc2nccn2C2CNC2)c1)OCc1ccccc1
82 | > 99.5 | O=C1Nc2ncccc2C[C@H]1NCc1n[nH]c2ccccc12
83 | 10.9 | Cc1ccc(NC(=O)c2cc(Cl)cc(NC(=O)OCc3ccccc3)c2)cc1CN
84 | 12.1 | CCc1ccc([C@@H](CC(=O)Nc2cccc(CN)c2)NC(=O)OCc2ccccc2)cc1Br
85 | > 99.5 | CCCCS(=O)(=O)N1CCC([C@H](NC(=O)OCc2ccccc2)C(=O)Nc2cccc(CN)c2)CC1
86 | 10.4 | CSc1cc(Cl)cc(C(=O)Nc2cccc(CN)c2)c1
87 | > 99.5 | CN1C(=O)C[C@H](C(=O)Nc2cccc(CN)c2)[C@H]1c1ccc(Cl)c(Cl)c1
88 | > 99.5 | c1cncc(-c2cc(CN3CCC(c4cscn4)CC3)n[nH]2)c1
89 | 92.3 | NCc1cccc(S(=O)(=O)Cc2cc(Cl)cc(NC(=O)OCc3ccccc3)c2)c1
90 | > 99.5 | Cc1ncc(NC(=O)OCc2ccccc2)cc1C(=O)Nc1cccc(CN)c1
91 | > 99.5 | NCc1cn(CCNC(=O)c2cc(Cl)cc(NC(=O)OCc3ccccc3)c2)nn1
92 | > 99.5 | Cc1ocnc1COc1cccc([C@H](NC(=O)OCc2ccccc2)C(=O)Nc2cccc(CN)c2)c1
93 | 55.5 | NCc1cccc(NC(=O)c2cc(Cl)ccc2OCC(F)(F)F)c1
94 | > 99.5 | NCc1cccc(NC(=O)[C@H](NC(=O)OCc2ccccc2)C2CCN(CCc3ccccc3)CC2)c1
95 | 68.6 | NC[C@]1(F)C[C@@H](NC(=O)c2cc(Cl)cc(NC(=O)OCc3ccccc3)c2)C1
96 | > 99.5 | Cn1ncc(CN2CCC([C@H](NC(=O)OCc3ccccc3)C(=O)Nc3cccc(CN)c3)CC2)n1
97 | > 99.5 | NCc1cccc(NC(=O)[C@H](NC(=O)OCc2ccccc2)c2cccc(OCCn3cccn3)c2)c1
98 | 5.98 | NCc1cccc(NC(=O)c2cc(Cl)cc3c2CCC3)c1

From ChEMBL document CHEMBL5604062, “ASAP - ZIKV NS2B-NS3 protease fluorescence dose response” (2024)
